The record followed here is patent US20060148752A1, “Method of treating soild tumors and leukemias using combination therapy of vitamin D and anti-metabolic nucleoside analogs” (priority 2004, published 2006).

Entries after “also recorded” stand apart in the source; their conditions may differ.

What all share (type): cell-based, human
One test has as its system P-Akt. Briefly: Immunoblot of P-Akt expression in capan-1 cells. The settings on record: vehicle or 0.75 μM calcitriol 24 h, then varying concentrations of gemcitabine 24 h. As for the experimental part: (§1) FIG. 4 is an immunoblot showing inhibition of survival signaling pathways in capan-1 by treatment with gemcitabine and 1,25D3. Capan-1 cells were treated 24 h with either vehicle or 0.75 μM calcitriol and then were treated with varying concentrations of gemcitabine for another 24 h. Cells were processed for immunoblotting to assess P-ErK1/2 and P-Akt expression. P-Erk1/2 was not affected by either agent alone or by the calcitriol/gemcitabine combination. […] For Western blot analysis, capan-1 cells were harvested and lysed in Triton-X100/SDS buffer as described previously ([…] et al., J. Biol. Chem. 276(33):30923-33 (2001), which is hereby incorporated by reference in its entirety). Proteins were transferred to PVDF membrane, and Western blots developed using Renaissance Enhanced Chemiluminescence Reagents (NEN Life Science Products, Boston, Mass.) or SuperSignal (Pierce, Rockford, Ill.).
(In general: A western blot detects proteins with antibodies after separation by electrophoresis.)

A further test relates to P-Erk1/2. Put plainly: Immunoblot of P-Erk1/2 expression in capan-1 cells. The settings on record: vehicle or 0.75 μM calcitriol 24 h, then varying concentrations of gemcitabine 24 h. As for the experimental part:
as §1

A further test relates to caspase-8. Put plainly: Caspase-8 cleavage (Western blot) and activity (colorimetric assay) in capan-1 cells. The settings on record: vehicle or 0.75 μM calcitriol 24 h, then varying concentrations of gemcitabine. As for the experimental part:
(§2) FIG. 5 is a series of Western blots illustrating the effects of treatment with calcitriol and gemcitabine on caspase pathway induction in capan-1 cells. […] Cell lysates were prepared and analyzed by Western blot for caspase-3, caspase-6, caspase-8, and caspase-9. […] FIGS. 6A-D show quantitation of caspase-3, caspase-6, caspase-8, and caspase-9. Activity of caspase-3 (FIG. 6A), caspase-6 (FIG. 6B), caspase-8 (FIG. 6C), and caspase-9 (FIG. 6D) in capan-1 cells was measured by caspase-family colorimetric substrate assays, according to the manufacturer's protocol. Absorbance at 400 nm was determined, and the caspase activity was expressed as absorbance (ODU) per milligram of protein per reaction. […] Caspase activity was expressed as absorbance (O.D.) per milligram of protein per reaction. For Western blot analysis, capan-1 cells were harvested and lysed in Triton-X100/SDS buffer as described previously ([…] et al., J. Biol. Chem. 276(33):30923-33 (2001), which is hereby incorporated by reference in its entirety). Proteins were transferred to PVDF membrane, and Western blots developed using Renaissance Enhanced Chemiluminescence Reagents (NEN Life Science Products, Boston, Mass.) or SuperSignal (Pierce, Rockford, Ill.).

In the next test the test system is caspase-9. Put plainly: Caspase-9 cleavage (Western blot) and activity (colorimetric assay) in capan-1 cells. The settings on record: vehicle or 0.75 μM calcitriol 24 h, then varying concentrations of gemcitabine. As for the experimental part:
as §2

The test system of a further test is caspase-6. Put plainly: Caspase-6 cleavage (Western blot) and activity (colorimetric assay) in capan-1 cells. The settings on record: vehicle or 0.75 μM calcitriol 24 h, then varying concentrations of gemcitabine. How it is done:
as §2

Turning to `Nc1ccn([C@@H]2O[C@H](CO)[C@@H](O)C2(F)F)c(=O)n1` [gemcitabine], the P-Akt levels entry in the test on P-Akt was “little affected; also recorded: not affected”. Besides, the P-Erk1/2 expression result in the test on P-Erk1/2 is “not affected”. Further, the caspase-8 cleavage/activation result in the test on caspase-8 was “increase in the cleaved, activated form”. Moreover, the caspase-9 cleavage/activation result in the test with caspase-9 was “no significant change; also recorded: modestly increased”.
On to `C=C1/C(=C\C=C2/CCC[C@]3(C)[C@@H]([C@H](C)CCCC(C)(C)O)CC[C@@H]23)C[C@@H](O)C[C@@H]1O` [calcitriol, 1,25-dihydroxycholecalciferol], for which, in the test on P-Akt, the P-Akt levels result was “modestly reduced”. Also, in the test on P-Erk1/2, the P-Erk1/2 expression result is on record as “not affected”. For the same compound, in the test on caspase-8, the caspase-8 cleavage/activation result was “not cleaved at detectable levels; also recorded: no change”. Moreover, the caspase-9 cleavage/activation result in the test with caspase-9 is given as “not cleaved at detectable levels; also recorded: modestly increased”. In the test on caspase-6, the caspase-6 cleavage/activation result is given as “not cleaved at detectable levels”.
